Results as given in ChEMBL document CHEMBL1201862, “PubChem BioAssay data set” (2004).
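Following 48 hours of exposure in 96-well plates, responses at five concentrations were used to interpolate endpoints linearly. GI50 marks 50% less growth.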 Calls of active or inactive are those of the source. Rule as the data show it: active = GI50 up to about 1.1 µM and inactive = higher.

Key:
Assay in all cases: DTP human tumour cell line panel, 48 h
SK-MEL-5 = test system: SK-MEL-5
UO-31 = test system: UO-31
DMS-114 = test system: DMS-114
NCI-H226 = test system: NCI-H226
HCC 2998 = test system: HCC 2998
HCT-15 = test system: HCT-15
SF-295 = test system: SF-295
HOP-62 = test system: HOP-62
HCT-116 = test system: HCT-116
A498 = test system: A498
TK-10 = test system: TK-10
RXF 393 = test system: RXF 393
OVCAR-8 = test system: OVCAR-8
LOX IMVI = test system: LOX IMVI
HT-29 = test system: HT-29
CCRF-CEM = test system: CCRF-CEM
OVCAR-3 = test system: OVCAR-3
UACC-62 = test system: UACC-62
A549 = test system: A549
NCI-H23 = test system: NCI-H23
CAKI-1 = test system: CAKI-1
SN12C = test system: SN12C
KM12 = test system: KM12
NCI-H460 = test system: NCI-H460
SK-MEL-28 = test system: SK-MEL-28
Malme-3M = test system: Malme-3M
OVCAR-4 = test system: OVCAR-4
KM-20L2 = test system: KM-20L2
IGROV-1 = test system: IGROV-1
DLD-1 = test system: DLD-1
HL-60 = test system: HL-60
SK-OV-3 = test system: SK-OV-3
LXFL 529 = test system: LXFL 529
SF-268 = test system: SF-268
K562 = test system: K562
SNB-78 = test system: SNB-78
DMS-273 = test system: DMS-273
M19-MEL = test system: M19-MEL
M14 = test system: M14
SW-620 = test system: SW-620
HOP-92 = test system: HOP-92
SNB-75 = test system: SNB-75
U-251 = test system: U-251
SNB-19 = test system: SNB-19
786-0 = test system: 786-0
ACHN = test system: ACHN
EKVX = test system: EKVX
XF498 = test system: XF498
SK-MEL-2 = test system: SK-MEL-2
UACC-257 = test system: UACC-257
OVCAR-5 = test system: OVCAR-5
SF-539 = test system: SF-539
PC-3 = test system: PC-3
MDA-N = test system: MDA-N
MOLT-4 = test system: MOLT-4
MCF7 = test system: MCF7
BT-549 = test system: BT-549
SR = test system: SR
MDA-MB-435 = test system: MDA-MB-435
MDA-MB-231 = test system: MDA-MB-231
NCI/ADR-RES = test system: NCI/ADR-RES
DU-145 = test system: DU-145
NCI-H522 = test system: NCI-H522
RPMI-8226 = test system: RPMI-8226
COLO 205 = test system: COLO 205
Hs-578T = test system: Hs-578T
T47D = test system: T47D

O=c1/c(=C/c2cccc([N+](=O)[O-])c2)sc2nc3ccccc3n12
GI50 (SK-MEL-5): > 10 µM (inactive) | GI50 (UO-31): > 100 µM (inactive) | GI50 (DMS-114): > 100 µM (inactive) | GI50 (NCI-H226): > 100 µM (inactive) | GI50 (HCC 2998): 50.8 µM (inactive) | GI50 (HCT-15): > 100 µM | GI50 (SF-295): > 10 µM (inactive) | GI50 (HOP-62): > 100 µM (inactive) | GI50 (HCT-116): 37.3 µM (inactive) | GI50 (A498): > 100 µM (inactive) | GI50 (TK-10): > 100 µM (inactive) | GI50 (RXF 393): > 100 µM (inactive) | GI50 (OVCAR-8): > 100 µM (inactive) | GI50 (LOX IMVI): 6.73 µM (inactive) | GI50 (HT-29): > 100 µM (inactive) | GI50 (CCRF-CEM): > 100 µM (inactive) | GI50 (OVCAR-3): > 10 µM (inactive) | GI50 (UACC-62): 0.446 µM (active) | GI50 (A549): > 10 µM (inactive) | GI50 (NCI-H23): > 100 µM (inactive) | GI50 (CAKI-1): > 10 µM (inactive) | GI50 (SN12C): > 100 µM (inactive) | GI50 (KM12): > 100 µM (inactive) | GI50 (NCI-H460): > 100 µM (inactive) | GI50 (SK-MEL-28): 35.6 µM (inactive) | GI50 (Malme-3M): > 100 µM (inactive) | GI50 (OVCAR-4): 52.4 µM (inactive) | GI50 (KM-20L2): > 10 µM (inactive) | GI50 (IGROV-1): > 10 µM (inactive) | GI50 (DLD-1): > 100 µM (inactive) | GI50 (HL-60): > 100 µM (inactive) | GI50 (SK-OV-3): 67.8 µM (inactive) | GI50 (LXFL 529): > 100 µM (inactive) | GI50 (SF-268): 39.2 µM (inactive) | GI50 (K562): > 100 µM (inactive) | GI50 (SNB-78): > 100 µM (inactive) | GI50 (DMS-273): > 100 µM (inactive) | GI50 (M19-MEL): > 100 µM (inactive) | GI50 (M14): 55.1 µM (inactive) | GI50 (SW-620): > 100 µM (inactive) | GI50 (HOP-92): > 10 µM (inactive) | GI50 (SNB-75): 32.8 µM (inactive) | GI50 (U-251): > 10 µM (inactive) | GI50 (SNB-19): > 10 µM (inactive) | GI50 (786-0): > 100 µM (inactive) | GI50 (ACHN): 84.7 µM (inactive) | GI50 (EKVX): 58.7 µM (inactive) | GI50 (XF498): > 100 µM (inactive) | GI50 (SK-MEL-2): > 100 µM (inactive) | GI50 (UACC-257): 4.71 µM (inactive) | GI50 (OVCAR-5): > 100 µM (inactive)

C/C(=N\N)C(CN1CCOCC1)C(c1ccccc1)c1c(O)c2ccccc2oc1=O (stereo unspecified)
GI50 (SK-MEL-5): > 64.9 µM (inactive) | GI50 (UO-31): 44.3 µM (inactive) | GI50 (DMS-114): > 100 µM (inactive) | GI50 (SF-539): > 100 µM (inactive) | GI50 (NCI-H226): > 100 µM (inactive) | GI50 (HCC 2998): > 100 µM (inactive) | GI50 (HCT-15): > 100 µM | GI50 (SF-295): > 100 µM (inactive) | GI50 (HOP-62): > 91 µM (inactive) | GI50 (HCT-116): > 100 µM (inactive) | GI50 (A498): 69.8 µM (inactive) | GI50 (PC-3): > 100 µM (inactive) | GI50 (TK-10): > 100 µM (inactive) | GI50 (RXF 393): 3.38 µM (inactive) | GI50 (OVCAR-8): > 90.6 µM (inactive) | GI50 (LOX IMVI): 26.4 µM (inactive) | GI50 (HT-29): > 100 µM (inactive) | GI50 (MDA-N): > 100 µM (inactive) | GI50 (CCRF-CEM): 23.3 µM (inactive) | GI50 (OVCAR-3): > 61.4 µM (inactive) | GI50 (A549): > 75.2 µM (inactive) | GI50 (NCI-H23): > 100 µM (inactive) | GI50 (MOLT-4): 40.5 µM (inactive) | GI50 (CAKI-1): > 100 µM (inactive) | GI50 (MCF7): 56 µM (inactive) | GI50 (SN12C): > 100 µM (inactive) | GI50 (KM12): > 81.1 µM (inactive) | GI50 (NCI-H460): > 80.7 µM (inactive) | GI50 (SK-MEL-28): > 100 µM (inactive) | GI50 (Malme-3M): > 64.7 µM (inactive) | GI50 (OVCAR-4): 77.3 µM (inactive) | GI50 (KM-20L2): > 100 µM (inactive) | GI50 (BT-549): 32.3 µM (inactive) | GI50 (IGROV-1): > 100 µM (inactive) | GI50 (SR): 46 µM (inactive) | GI50 (MDA-MB-435): 53.7 µM (inactive) | GI50 (MDA-MB-231): 91 µM (inactive) | GI50 (NCI/ADR-RES): 65.9 µM (inactive) | GI50 (DLD-1): > 100 µM (inactive) | GI50 (HL-60): 30.4 µM (inactive) | GI50 (SK-OV-3): > 100 µM (inactive) | GI50 (LXFL 529): > 100 µM (inactive) | GI50 (SF-268): > 100 µM (inactive) | GI50 (K562): 47.6 µM (inactive) | GI50 (DU-145): > 100 µM (inactive) | GI50 (SNB-78): > 100 µM (inactive) | GI50 (DMS-273): > 100 µM (inactive) | GI50 (M19-MEL): > 100 µM (inactive) | GI50 (M14): > 76.6 µM (inactive) | GI50 (NCI-H522): > 52 µM (inactive) | GI50 (SW-620): > 100 µM (inactive) | GI50 (HOP-92): 26.3 µM (inactive) | GI50 (RPMI-8226): > 67.1 µM (inactive) | GI50 (COLO 205): > 44.8 µM (inactive) | GI50 (Hs-578T): > 100 µM (inactive) | GI50 (T47D): 12.4 µM (inactive) | GI50 (SNB-75): 42.9 µM (inactive) | GI50 (U-251): > 76.9 µM (inactive) | GI50 (SNB-19): > 100 µM (inactive) | GI50 (786-0): > 95.1 µM (inactive) | GI50 (ACHN): > 100 µM (inactive) | GI50 (EKVX): 83.6 µM (inactive) | GI50 (SK-MEL-2): > 100 µM (inactive) | GI50 (UACC-257): > 100 µM (inactive) | GI50 (OVCAR-5): > 100 µM (inactive)
